The source of these data is paper PMC6175062, “Gaining Mechanistic Insight Into Coproporphyrin I as Endogenous Biomarker for OATP1B‐Mediated Drug–Drug Interactions Using Population Pharmacokinetic Modeling and Simulation” (Clinical Pharmacology and Therapeutics, 2018).

“And” between values parts separate entries of the source, which are not always exact repeats. Equal entries are not always repeated. Where two headings read alike, the source gives them in different places. A value given as a limit tells only on which side of the number the result lay.

For one data set, the system named is OATP. The settings on record: cited from earlier work.
A short description of data set [1]: Analysis of individual clinical CPI and rosuvastatin data (baseline, AUCR, fT). The data set is classed as in vivo, human. The settings on record: for mean fraction eliminated via transporters (fT): from AUC with/without RIF (Equation 1). The protocol: (§1) Individual plasma and urine data were obtained from a previous study in 12 healthy male subjects.6 The study was split into three occasions (OCC1–3) with a 7‐day washout period between OCC1 and 2 and OCC2 and 3. During each occasion, baseline CPI urine and plasma samples were collected (Figure S2). A single 600‐mg oral dose of RIF and a single 5‐mg oral dose of RSV were administered to the volunteers in OCC1 and OCC2, respectively. Finally, in OCC3 the same respective doses of RIF and RSV were coadministered to healthy volunteers. Plasma (RIF, RSV, and CPI) were collected at predefined timepoints over the 24‐h period following administration of RIF and/or RSV. Urine samples were collected over one time interval (−7 to 0 h) for the pretreatment sample (CPI monitored) and two subsequent intervals (0–7 h and 7–24 h) for posttreatment samples of CPI and RSV. The total number of plasma samples for modeling purposes were 276 (OCC1 = 144, OCC3 = 132), 420 (OCC1 = 144, OCC2 = 144, OCC3 = 132), and 264 (OCC2 = 132, OCC3 = 132) for RIF, CPI, and RSV, respectively, whereas the total number of urine samples were 102 (pretreatment = 34, posttreatment = 68) and 44 for CPI and RSV, respectively. No subjects enrolled in the clinical study had OATP1B1*5 or OATP1B1*15 mutations, associated with altered OATP1B1 activity.
Variability in baseline CPI plasma concentration between the three occasions was assessed and a one‐way analysis of variance (ANOVA) test was used to determine any significant differences. CPI and RSV plasma concentrations in the presence/absence of RIF were used to calculate the area under the curve (AUC) using the trapezoid function in MATLAB (MathWorks, Natick, MA, 2015a). Subsequently, the fold change in RSV and CPI AUC of each individual and the fraction eliminated by transporters (fT) for each probe was calculated (Equation 1). (1) fT=1−AUC(control)/AUC(+inhibitor)

The nature of data set [2]: Population PK model of rosuvastatin plasma and urine data with/without rifampicin. The data set is classed as in vivo, human. The protocol: as §1
(§2) Population PK models were developed sequentially for analysis of RIF, CPI, and RSV plasma and urine data using nonlinear mixed‐effects modeling software, NONMEM, with first‐order conditional estimation method.32 Statistical analysis, GOF plots, and other graphical analysis were conducted in MATLAB. The structural models for RIF and RSV (Supplementary Material) were selected based on population PK models available in the literature.34, 35 An exponential model was used to describe interindividual variability random‐effects parameters and IOV was evaluated for the model parameters; occasions were defined as periods of different visits following recruitment or washout periods. Covariates and random‐effects parameters (IIV and IOV) were retained in the models when there was a significant change in objective function and improvement in GOF plots. The incorporation of IIV and IOV in the models is shown in Equation 2: (2) θik=θ⋅e^ηi+κik where θ ik is the parameter for i^th individual on k^th occasion, θ is the population (typical individual) parameter, η i is the parameter that describes the deviation of the i^th individual parameter from the population (IIV), and k ik the parameter that describes the deviation of the i^th individual from the population in addition to η ik at the k^th occasion (IOV). Both random effect parameters (η ik and k ik) are assumed to be randomly distributed with a mean of zero and the variances are estimated during analysis. Proportional or additive or combination of proportional and additive residual error models were investigated for the residuals.
Based on the available plasma and urine data, a two compartment first order absorption and elimination model was used to describe the PK of RSV in the subjects. The model was parameterised using [picture] , volume of distribution of central ( [picture] ) and peripheral compartments ( [picture] ), inter-compartmental clearance ( [picture] ), biliary ( [picture] ) and renal ( [picture] ) clearance parameters. Analogous to CPI, inhibition of [picture] by RIF was incorporated in the rate of change of RSV plasma concentration, whereas it was assumed that RIF has no effect on RSV renal elimination (Eq 2). The rate of change of RSV amount in urine over time is shown in Eq3.
where [picture] and [picture] are RSV concentrations in central (plasma) and peripheral compartments, [picture] is the amount in depot compartment, [picture] is RSV amount in the urine and [picture] is RIF transporter inhibition constant using RSV as a probe. […]

The nature of data set [3]: Population PK (turnover) model of CPI plasma and urine data with/without rifampicin. The class given is in vivo, human. Here is the method: as §1, §2
The plasma concentrations of the endogenous biomarker CPI were described using a turnover model (Equation 3).36 Simultaneous fitting of individual CPI plasma and urine data in the presence and absence of RIF was performed. In the final model, RIF inhibited biliary elimination (CL b,CPI) of CPI, whereas its renal clearance (CL R,CPI) and k syn were not affected. The rate of change of CPI plasma concentration under baseline and RIF condition is shown in Equations 3 and 4, respectively, whereas change in CPI amount in urine over time is shown in Equation 5. (3) dCCPI/dt=[ksyn−CLb,CPI⋅CCPI−CLR,CPI⋅CCPI]⋅1/VCPI (4) dCCPI/dt=[ksyn−CLb,CPI⋅CCPI/1+CRIF/KiCPI−CLR,CPI⋅CCPI]⋅1/VCPI (5) dUCPI/dt=CLR,CPI⋅CCPI where C CPI is its plasma concentration, U CPI is the CPI amount in urine, t is time, k syn is the zero‐order synthesis rate, Ki CPI is RIF transporter inhibition constant using CPI as a probe, V CPI is the volume of distribution of CPI and C RIF is RIF plasma concentration (linked to RIF model). […]

For the compound `C=C[C@@H]1C[C@]1(NC(=O)[C@@H]1C[C@@H](Oc2ncc(OC)c3ccc(Cl)cc23)CN1C(=O)[C@@H](NC(=O)OC(C)(C)C)C(C)(C)C)C(=O)NS(=O)(=O)C1CC1` [Asunaprevir], the “Fold Change in AUC of rosuvastatin” value in the data set with OATP (inhibitor 200 mg, rosuvastatin 10 mg, ref (14)) was 1.41 fold.
`CC[C@H]1OC(=O)[C@H](C)[C@@H](O[C@H]2C[C@@](C)(OC)[C@@H](O)[C@H](C)O2)[C@H](C)[C@@H](O[C@@H]2O[C@H](C)C[C@H](N(C)C)[C@H]2O)[C@](C)(OC)C[C@@H](C)C(=O)[C@H](C)[C@@H](O)[C@]1(C)O` [Clarithromycin]: the “Fold Change in AUC of rosuvastatin” value in the data set with OATP (inhibitor 500 mg, rosuvastatin 0.025 mg, ref (15)) is recorded as 1.56 fold.
Consider `C=C[C@@H]1C[C@]1(NC(=O)[C@@H]1C[C@@H]2CN1C(=O)[C@H](C(C)(C)C)NC(=O)O[C@@H]1C[C@H]1CCCCCc1nc3ccc(OC)cc3nc1O2)C(=O)NS(=O)(=O)C1CC1.O` [Grazoprevir], for which the “Fold Change in AUC of rosuvastatin” value in the data set on OATP (inhibitor 200 mg, rosuvastatin 10 mg, ref (16)) is given as 1.59 fold.
For `CCC(C)n1ncn(-c2ccc(N3CCN(c4ccc(OCC5COC(Cn6cncn6)(c6ccc(Cl)cc6Cl)O5)cc4)CC3)cc2)c1=O` (stereo not shown) [Itraconazole], the “Fold Change in AUC of rosuvastatin” value with OATP (inhibitor 200 mg, rosuvastatin 0.025 mg, ref (15)) is on record as 1.78 fold.
`Cc1cnc(C(=O)N[C@H]2CCCCC/C=C\[C@@H]3C[C@@]3(C(=O)NS(=O)(=O)C3CC3)NC(=O)[C@@H]3C[C@@H](Oc4nc5ccccc5c5ccccc45)CN3C2=O)cn1` [Paritaprevir]: the “Fold Change in AUC of rosuvastatin” value with OATP (inhibitor 150 mg, rosuvastatin 10 mg, ref (17)) is 2.6 fold.
Take `CC(C)c1nc(N(C)S(C)(=O)=O)nc(-c2ccc(F)cc2)c1/C=C/[C@@H](O)C[C@@H](O)CC(=O)O` [RSV, rosuvastatin]: the “change in Cmax (fold increase) following RIF” value in data set [1] (RIF 600 mg co-administered) stood at 13.2 fold. The “range of estimated individual fT” value in data set [1] (from AUC with/without RIF) is given as 0.66–0.88. Further, the “mean fraction eliminated via transporters (fT)” value in data set [1] was found to be 0.79. In data set [2] (RSV alone), the “QRSV, population estimate (SE%)” value was 45.3 (19) L/h; the “V1RSV, population estimate (SE%)” value is reported as 430 (12) L; the “V2RSV, population estimate (SE%)” value is 865 (37) L. Further, in data set [2] (co-administered with RIF), the “QRSV (RIF), population estimate (SE%)” value is 5.03 (18) L/h; the “V1RSV (RIF), population estimate (SE%)” value is recorded as 2.98 (50) L; the “V2RSV (RIF), population estimate (SE%)” value is reported as 128 (42) L. Besides, in data set [2] (in vivo), the “contribution of biliary clearance to elimination” value is 94% and the “reduction of V1RSV in the presence of RIF” value was greater than 90%. In data set [2] (male, human, in vivo, 5 mg), the CL renal is 141 mL/min and the “CLb,RSV, population estimate (SE%)” value was 124 (11) L/h. Besides, the “kaRSV, population estimate (SE%)” value in data set [2] (single 5-mg oral dose) is 0.287 (9) h^−1.
As for `COc1ccc2c(O[C@@H]3C[C@H]4C(=O)N[C@]5(C(=O)NS(=O)(=O)C6CC6)C[C@H]5/C=C\CCCCN(C)C(=O)[C@@H]4C3)cc(-c3nc(C(C)C)cs3)nc2c1C` [Simeprevir], the “Fold Change in AUC of rosuvastatin” value in the data set on OATP (inhibitor 150 mg, rosuvastatin 10 mg, ref (19)) is recorded as 2.8 fold.
Take `COC[C@H]1C[C@@H](c2ncc(-c3ccc4c(c3)COc3cc5c(ccc6nc([C@@H]7CC[C@H](C)N7C(=O)[C@@H](NC(=O)OC)C(C)C)[nH]c65)cc3-4)[nH]2)N(C(=O)[C@H](NC(=O)OC)c2ccccc2)C1` [Velpatasvir]: the “Fold Change in AUC of rosuvastatin” value in the data set on OATP (inhibitor 100 mg, rosuvastatin 10 mg, ref (18)) is listed as 2.69 fold.
With coproporphyrin I [CPI], the “mean fraction eliminated via transporters (fT)” value in data set [1] is 0.76. For the same compound, the “maximal contribution of biliary clearance to total clearance” value in data set [3] (basal conditions) is > 85% and 88%. Besides, the “VCPI, population estimate (SE%)” value in data set [3] (baseline) is on record as 6.59 (12) L. Further, in data set [3] (endogenous CPI), the “ksyn (zero-order synthesis rate), population estimate (SE%)” value was 12.7 (6) nM/h. Besides, the “VCPI (RIF), population estimate (SE%)” value in data set [3] (in the presence of RIF) was 3.4 (13) L. Further, in data set [3] (in vivo), the “CLR,CPI (renal clearance), population estimate (SE%)” value is 1.64 (6) L/h and the “reduction of estimated VCPI in the presence of RIF” value was roughly 50%.
